How the values were obtained:
[1] = target: MAP kinase-interacting serine/threonine-protein kinase 2 (Homo sapiens) (UniProt Q9HBH9); details: Compound concentration 1000.0 nM
[2] = target: Serine/threonine-protein kinase MRCK beta (Homo sapiens) (UniProt Q9Y5S2); details: Compound concentration 1000.0 nM
[3] = target: G protein-coupled receptor kinase 3 (Homo sapiens) (UniProt P35626); details: Compound concentration 1000.0 nM
[4] = target: Beta-1 adrenergic receptor (Homo sapiens) (UniProt P08588); details: Compound concentration 10.0 uM
[5] = target: Ephrin type-A receptor 2 (Homo sapiens) (UniProt P29317); details: Compound concentration 1000.0 nM
[6] = target: RAC-alpha serine/threonine-protein kinase (Homo sapiens) (UniProt P31749); details: Compound concentration 1000.0 nM
[7] = target: Serine/threonine-protein kinase RIO3 (Homo sapiens) (UniProt O14730); details: Compound concentration 1000.0 nM
[8] = target: Phosphatidylinositol 4-phosphate 5-kinase type-1 alpha (Homo sapiens) (UniProt Q99755); details: Compound concentration 1000.0 nM
[9] = target: Phosphatidylinositol 4-kinase beta (Homo sapiens) (UniProt Q9UBF8); details: Compound concentration 1000.0 nM
[10] = target: Serine/threonine-protein kinase Sgk1 (Homo sapiens) (UniProt O00141); details: Compound concentration 1000.0 nM
[11] = target: Serine/threonine-protein kinase TNNI3K (Homo sapiens) (UniProt Q59H18); details: Compound concentration 1000.0 nM
[12] = target: Serine/threonine-protein kinase BRSK2 (Homo sapiens) (UniProt Q8IWQ3); details: Compound concentration 1000.0 nM
[13] = target: Activin receptor type-1-like (Homo sapiens) (UniProt P37023); details: Compound concentration 1000.0 nM
[14] = target: Mitogen-activated protein kinase 12 (Homo sapiens) (UniProt P53778); details: Compound concentration 1000.0 nM
[15] = target: Serine/threonine-protein kinase 35 (Homo sapiens) (UniProt Q8TDR2); details: Compound concentration 1000.0 nM
[16] = target: Serine/threonine-protein kinase PAK 3 (Homo sapiens) (UniProt O75914); details: Compound concentration 1000.0 nM
[17] = system: Receptor-type tyrosine-protein kinase FLT3 (Homo sapiens), P36888 [D835H]; details: Compound concentration 1000.0 nM
[18] = target: Tyrosine-protein kinase JAK2 (Homo sapiens) (UniProt O60674); details: Compound concentration 1000.0 nM
[19] = target: Mast/stem cell growth factor receptor Kit (Homo sapiens) (UniProt P10721); details: Compound concentration 1000.0 nM
[20] = target: Ephrin type-B receptor 3 (Homo sapiens) (UniProt P54753); details: Compound concentration 1000.0 nM
[21] = target: Ribosomal protein S6 kinase beta-1 (Homo sapiens) (UniProt P23443); details: Compound concentration 1000.0 nM
[22] = target: Inhibitor of nuclear factor kappa-B kinase subunit beta (Homo sapiens) (UniProt O14920); details: Compound concentration 1000.0 nM
[23] = target: Serine/threonine-protein kinase Nek10 (Homo sapiens) (UniProt Q6ZWH5); details: Compound concentration 1000.0 nM
[24] = target: Serine/threonine-protein kinase PAK 6 (Homo sapiens) (UniProt Q9NQU5); details: Compound concentration 1000.0 nM
[25] = target: Phosphatidylinositol 4,5-bisphosphate 3-kinase catalytic subunit delta isoform (Homo sapiens) (UniProt O00329); details: Compound concentration 1000.0 nM
[26] = target: cAMP-dependent protein kinase catalytic subunit beta (Homo sapiens) (UniProt P22694); details: Compound concentration 1000.0 nM
[27] = target: Ribosomal protein S6 kinase alpha-6 (Homo sapiens) (UniProt Q9UK32); details: Compound concentration 1000.0 nM
[28] = target: LIM domain kinase 2 (Homo sapiens) (UniProt P53671); details: Compound concentration 1000.0 nM
[29] = target: Serine/threonine-protein kinase TBK1 (Homo sapiens) (UniProt Q9UHD2); details: Compound concentration 1000.0 nM
[30] = target: Rhodopsin kinase GRK1 (Homo sapiens) (UniProt Q15835); details: Compound concentration 1000.0 nM
[31] = system: Tyrosine-protein kinase ABL1 (Homo sapiens), P00519 [E255K]; details: Compound concentration 1000.0 nM
[32] = target: G protein-coupled receptor kinase 4 (Homo sapiens) (UniProt P32298); details: Compound concentration 1000.0 nM
[33] = target: 5-hydroxytryptamine receptor 2A (Homo sapiens) (UniProt P28223); details: Compound concentration 10.0 uM
[34] = target: Megakaryocyte-associated tyrosine-protein kinase (Homo sapiens) (UniProt P42679); details: Compound concentration 1000.0 nM
[35] = target: Mitogen-activated protein kinase kinase kinase 7 (Homo sapiens) (UniProt O43318); details: Compound concentration 1000.0 nM
[36] = target: Calcium/calmodulin-dependent protein kinase type II subunit beta (Homo sapiens) (UniProt Q13554); details: Compound concentration 1000.0 nM
[37] = system: Mast/stem cell growth factor receptor Kit (Homo sapiens), P10721 [V559D]; details: Compound concentration 1000.0 nM
[38] = target: Serine/threonine-protein kinase LATS2 (Homo sapiens) (UniProt Q9NRM7); details: Compound concentration 1000.0 nM
[39] = target: MAP kinase-interacting serine/threonine-protein kinase 1 (Homo sapiens) (UniProt Q9BUB5); details: Compound concentration 1000.0 nM
[40] = target: 5-hydroxytryptamine receptor 5A (Homo sapiens) (UniProt P47898); details: Compound concentration 10.0 uM
[41] = target: Mitogen-activated protein kinase kinase kinase kinase 5 (Homo sapiens) (UniProt Q9Y4K4); details: Compound concentration 1000.0 nM
[42] = target: Testis-specific serine/threonine-protein kinase 1 (Homo sapiens) (UniProt Q9BXA7); details: Compound concentration 1000.0 nM
[43] = system: Receptor-type tyrosine-protein kinase FLT3 (Homo sapiens), P36888 [K663Q]; details: Compound concentration 1000.0 nM
[44] = system: Tyrosine-protein kinase ABL1 (Homo sapiens), P00519 [H396P]; details: Compound concentration 1000.0 nM
[45] = target: Mitogen-activated protein kinase kinase kinase kinase 2 (Homo sapiens) (UniProt Q12851); details: Compound concentration 1000.0 nM

Serine/threonine-protein kinase MRCK beta (Homo sapiens), sequence (Q9Y5S2 whole entry): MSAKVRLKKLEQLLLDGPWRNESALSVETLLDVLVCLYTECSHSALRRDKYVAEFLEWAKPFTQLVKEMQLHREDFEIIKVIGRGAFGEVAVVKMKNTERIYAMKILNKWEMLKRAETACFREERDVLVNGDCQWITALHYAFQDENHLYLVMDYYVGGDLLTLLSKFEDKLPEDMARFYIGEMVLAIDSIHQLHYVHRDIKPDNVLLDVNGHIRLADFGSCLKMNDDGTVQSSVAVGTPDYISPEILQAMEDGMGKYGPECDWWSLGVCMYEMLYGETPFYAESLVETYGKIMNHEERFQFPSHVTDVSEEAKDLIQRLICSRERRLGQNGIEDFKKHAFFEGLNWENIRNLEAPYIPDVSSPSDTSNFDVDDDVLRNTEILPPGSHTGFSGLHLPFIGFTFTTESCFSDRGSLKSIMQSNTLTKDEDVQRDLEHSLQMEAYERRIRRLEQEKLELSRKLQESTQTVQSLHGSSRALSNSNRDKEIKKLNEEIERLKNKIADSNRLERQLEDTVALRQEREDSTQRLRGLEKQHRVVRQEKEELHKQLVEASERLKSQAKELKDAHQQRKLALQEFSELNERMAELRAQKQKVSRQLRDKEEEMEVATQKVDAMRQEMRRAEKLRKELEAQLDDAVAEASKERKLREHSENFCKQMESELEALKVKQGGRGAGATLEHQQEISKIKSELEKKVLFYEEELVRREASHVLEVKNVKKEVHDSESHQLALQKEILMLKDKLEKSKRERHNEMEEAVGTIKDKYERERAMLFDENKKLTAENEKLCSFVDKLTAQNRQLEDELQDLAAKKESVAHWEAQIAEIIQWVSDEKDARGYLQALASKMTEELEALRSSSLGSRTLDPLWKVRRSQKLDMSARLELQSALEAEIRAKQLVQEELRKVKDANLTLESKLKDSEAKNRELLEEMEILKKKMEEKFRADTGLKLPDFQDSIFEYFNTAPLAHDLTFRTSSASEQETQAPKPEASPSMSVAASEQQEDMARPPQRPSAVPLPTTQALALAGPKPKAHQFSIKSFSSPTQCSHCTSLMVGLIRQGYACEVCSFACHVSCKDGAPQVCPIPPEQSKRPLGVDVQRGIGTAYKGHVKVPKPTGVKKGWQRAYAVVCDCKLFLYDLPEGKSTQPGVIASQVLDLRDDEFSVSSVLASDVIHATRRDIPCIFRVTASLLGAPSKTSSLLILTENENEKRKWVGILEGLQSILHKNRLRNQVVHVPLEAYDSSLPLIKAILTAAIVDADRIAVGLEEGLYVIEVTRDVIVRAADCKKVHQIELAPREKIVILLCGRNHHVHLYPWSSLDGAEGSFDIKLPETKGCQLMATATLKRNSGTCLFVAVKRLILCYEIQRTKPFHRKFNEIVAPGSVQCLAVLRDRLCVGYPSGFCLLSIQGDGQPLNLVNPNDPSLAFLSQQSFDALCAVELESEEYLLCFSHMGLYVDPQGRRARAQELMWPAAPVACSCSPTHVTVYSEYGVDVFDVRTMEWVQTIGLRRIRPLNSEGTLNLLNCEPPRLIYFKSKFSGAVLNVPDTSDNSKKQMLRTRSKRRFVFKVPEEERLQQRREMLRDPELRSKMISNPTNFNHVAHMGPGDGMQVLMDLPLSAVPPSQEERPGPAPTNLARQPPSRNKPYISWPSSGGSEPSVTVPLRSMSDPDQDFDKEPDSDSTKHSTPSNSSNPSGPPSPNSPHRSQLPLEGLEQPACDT
Mast/stem cell growth factor receptor Kit (Homo sapiens), P10721 [V559D], sequence (P10721 whole entry V559D): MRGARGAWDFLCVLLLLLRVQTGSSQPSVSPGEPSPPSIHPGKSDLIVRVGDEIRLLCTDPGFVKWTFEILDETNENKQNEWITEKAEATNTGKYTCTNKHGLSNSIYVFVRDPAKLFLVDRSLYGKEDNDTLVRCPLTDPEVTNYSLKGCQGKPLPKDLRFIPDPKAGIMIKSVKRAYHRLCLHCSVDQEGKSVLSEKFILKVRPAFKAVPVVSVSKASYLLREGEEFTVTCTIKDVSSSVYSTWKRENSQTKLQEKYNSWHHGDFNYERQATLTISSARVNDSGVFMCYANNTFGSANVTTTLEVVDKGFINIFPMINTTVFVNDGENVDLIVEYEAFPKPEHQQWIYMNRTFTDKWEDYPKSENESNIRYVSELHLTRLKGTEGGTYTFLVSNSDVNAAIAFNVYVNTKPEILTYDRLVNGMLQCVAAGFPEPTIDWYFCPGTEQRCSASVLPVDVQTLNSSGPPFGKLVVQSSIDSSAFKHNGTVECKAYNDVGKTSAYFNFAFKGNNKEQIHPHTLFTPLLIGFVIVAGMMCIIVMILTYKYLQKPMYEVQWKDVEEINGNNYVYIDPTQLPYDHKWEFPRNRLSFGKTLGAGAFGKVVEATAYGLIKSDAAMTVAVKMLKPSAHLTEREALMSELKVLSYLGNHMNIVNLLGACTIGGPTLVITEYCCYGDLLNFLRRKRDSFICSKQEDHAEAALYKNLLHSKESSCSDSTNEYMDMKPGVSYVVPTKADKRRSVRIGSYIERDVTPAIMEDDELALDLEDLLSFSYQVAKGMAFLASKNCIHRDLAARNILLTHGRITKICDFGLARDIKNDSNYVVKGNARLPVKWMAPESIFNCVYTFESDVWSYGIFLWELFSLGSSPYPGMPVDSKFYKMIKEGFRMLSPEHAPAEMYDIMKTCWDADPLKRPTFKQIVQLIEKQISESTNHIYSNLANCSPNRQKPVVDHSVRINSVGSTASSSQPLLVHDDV
Mitogen-activated protein kinase kinase kinase 7 (Homo sapiens), sequence (O43318 whole entry): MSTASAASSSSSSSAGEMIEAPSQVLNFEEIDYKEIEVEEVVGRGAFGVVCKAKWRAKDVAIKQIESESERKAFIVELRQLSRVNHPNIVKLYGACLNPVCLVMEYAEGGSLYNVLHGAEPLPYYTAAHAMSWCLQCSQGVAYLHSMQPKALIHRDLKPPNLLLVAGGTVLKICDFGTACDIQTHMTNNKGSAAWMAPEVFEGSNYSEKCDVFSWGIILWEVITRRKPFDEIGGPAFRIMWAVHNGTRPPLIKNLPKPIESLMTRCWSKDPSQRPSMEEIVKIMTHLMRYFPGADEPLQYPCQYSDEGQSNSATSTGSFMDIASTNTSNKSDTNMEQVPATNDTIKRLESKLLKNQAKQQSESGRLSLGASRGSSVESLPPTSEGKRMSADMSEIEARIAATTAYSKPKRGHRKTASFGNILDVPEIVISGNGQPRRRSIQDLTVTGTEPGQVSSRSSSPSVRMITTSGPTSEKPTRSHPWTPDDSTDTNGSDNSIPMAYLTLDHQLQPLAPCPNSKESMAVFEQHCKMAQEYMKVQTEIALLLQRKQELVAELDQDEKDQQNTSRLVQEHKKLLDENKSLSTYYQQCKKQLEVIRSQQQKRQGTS
Activin receptor type-1-like (Homo sapiens), sequence (P37023 whole entry): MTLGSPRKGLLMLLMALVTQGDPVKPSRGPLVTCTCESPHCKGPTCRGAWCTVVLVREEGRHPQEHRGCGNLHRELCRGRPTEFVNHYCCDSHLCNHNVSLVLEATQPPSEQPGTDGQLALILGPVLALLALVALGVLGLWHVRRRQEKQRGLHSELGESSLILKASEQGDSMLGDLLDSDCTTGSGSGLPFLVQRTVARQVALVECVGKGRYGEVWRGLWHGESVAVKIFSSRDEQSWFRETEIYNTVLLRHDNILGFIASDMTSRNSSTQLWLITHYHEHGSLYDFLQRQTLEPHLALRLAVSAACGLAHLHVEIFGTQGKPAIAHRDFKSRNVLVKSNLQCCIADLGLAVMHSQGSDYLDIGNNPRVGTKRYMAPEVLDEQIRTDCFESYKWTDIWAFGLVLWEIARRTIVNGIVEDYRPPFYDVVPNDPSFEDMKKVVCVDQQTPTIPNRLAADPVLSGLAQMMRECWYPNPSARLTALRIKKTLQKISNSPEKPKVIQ
RAC-alpha serine/threonine-protein kinase (Homo sapiens), sequence (P31749 whole entry): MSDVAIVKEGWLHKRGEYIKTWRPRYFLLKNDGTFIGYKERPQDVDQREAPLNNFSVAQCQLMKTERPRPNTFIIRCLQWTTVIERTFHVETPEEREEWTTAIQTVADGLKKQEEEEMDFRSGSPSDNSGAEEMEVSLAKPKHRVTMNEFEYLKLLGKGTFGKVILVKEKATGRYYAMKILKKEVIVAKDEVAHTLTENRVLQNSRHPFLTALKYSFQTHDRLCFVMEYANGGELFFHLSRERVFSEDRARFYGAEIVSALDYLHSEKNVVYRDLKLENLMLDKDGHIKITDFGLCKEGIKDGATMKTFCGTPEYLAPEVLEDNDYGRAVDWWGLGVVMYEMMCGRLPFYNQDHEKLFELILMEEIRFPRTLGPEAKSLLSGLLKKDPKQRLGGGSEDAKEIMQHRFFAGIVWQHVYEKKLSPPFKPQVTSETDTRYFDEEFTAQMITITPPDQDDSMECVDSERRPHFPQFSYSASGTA
LIM domain kinase 2 (Homo sapiens), sequence (P53671 whole entry, looked up, the tested form may be a part): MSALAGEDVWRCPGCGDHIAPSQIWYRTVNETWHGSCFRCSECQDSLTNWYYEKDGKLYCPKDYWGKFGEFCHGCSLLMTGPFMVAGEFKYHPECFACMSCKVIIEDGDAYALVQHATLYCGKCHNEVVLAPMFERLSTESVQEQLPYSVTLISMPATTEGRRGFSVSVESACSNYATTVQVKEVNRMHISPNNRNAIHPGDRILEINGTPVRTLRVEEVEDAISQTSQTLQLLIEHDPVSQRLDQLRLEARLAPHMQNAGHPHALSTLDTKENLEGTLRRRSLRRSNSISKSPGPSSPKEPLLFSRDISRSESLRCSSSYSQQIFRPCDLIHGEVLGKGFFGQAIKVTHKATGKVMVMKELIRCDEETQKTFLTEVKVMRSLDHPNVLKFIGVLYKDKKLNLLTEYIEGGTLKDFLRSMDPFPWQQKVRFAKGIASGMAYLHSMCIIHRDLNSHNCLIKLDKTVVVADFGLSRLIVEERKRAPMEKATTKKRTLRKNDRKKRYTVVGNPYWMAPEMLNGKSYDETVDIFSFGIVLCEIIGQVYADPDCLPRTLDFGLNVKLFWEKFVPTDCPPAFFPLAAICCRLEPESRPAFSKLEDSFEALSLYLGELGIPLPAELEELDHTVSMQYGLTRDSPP
Mast/stem cell growth factor receptor Kit (Homo sapiens), sequence (P10721 whole entry): as the sequence (P10721 whole entry V559D) above, with D559V counted along it

`NS(=O)(=O)c1cc(NC(=O)C2(c3ccccc3Cl)CC2)ccc1Oc1cccc(Cl)c1` [BAY-207] showed a residual activity [1] of 100%, a residual activity [2] of 62% and a residual activity [3] of 100%. It also gave an inhibition [4] of -3.09%, a residual activity [5] of 80% and a residual activity [6] of 78%. The residual activity [7] was 73%, the residual activity [8] was 100% and the residual activity [9] was 75%. For the same compound, the residual activity [10] was 100%, the residual activity [11] was 72% and the residual activity [12] was 87%. The residual activity [13] was 45%, the residual activity [14] was 54% and the residual activity [15] was 94%. It also gave a residual activity [16] of 64%, a residual activity [17] of 47% and a residual activity [18] of 100%. The residual activity [19] was 79%, the residual activity [20] was 62% and the residual activity [21] was 81%. For the same compound, the residual activity [22] was 70%, the residual activity [23] was 89% and the residual activity [24] was 100%. It also gave a residual activity [25] of 99%, a residual activity [26] of 88% and a residual activity [27] of 100%. The residual activity [28] was 82%, the residual activity [29] was 62% and the residual activity [30] was 72%. It also gave a residual activity [31] of 72%, a residual activity [32] of 100% and an inhibition [33] of 11.3%. The residual activity [34] was 100%, the residual activity [35] was 98% and the residual activity [36] was 100%. The residual activity [37] was 79%, the residual activity [38] was 68% and the residual activity [39] was 99%. It also gave an inhibition [40] of 5.57%, a residual activity [41] of 100% and a residual activity [42] of 100%. It also gave a residual activity [43] of 100%, a residual activity [44] of 81% and a residual activity [45] of 100%.

With `NS(=O)(=O)c1cc(NC(=O)Cc2ccccc2)ccc1Oc1cccc(Cl)c1` [BAY-1797] the residual activity [1] was 86%, the residual activity [2] was 100% and the residual activity [3] was 100%. It also gave an inhibition [4] of 14.3%, a residual activity [5] of 91% and a residual activity [6] of 100%. It also gave a residual activity [7] of 73%, a residual activity [8] of 100% and a residual activity [9] of 55%. The residual activity [10] was 87%, the residual activity [11] was 91% and the residual activity [12] was 91%. It also gave a residual activity [13] of 99%, a residual activity [14] of 100% and a residual activity [15] of 99%. It also gave a residual activity [16] of 85%, a residual activity [17] of 98% and a residual activity [18] of 73%. It also gave a residual activity [19] of 87%, a residual activity [20] of 94% and a residual activity [21] of 69%. For the same compound, the residual activity [22] was 91%, the residual activity [23] was 89% and the residual activity [24] was 100%. It also gave a residual activity [25] of 93%, a residual activity [26] of 100% and a residual activity [27] of 84%. It also gave a residual activity [28] of 88%, a residual activity [29] of 68% and a residual activity [30] of 83%. It also gave a residual activity [31] of 69%, a residual activity [32] of 100% and an inhibition [33] of -2.5%. It also gave a residual activity [34] of 68%, a residual activity [35] of 75% and a residual activity [36] of 100%. It also gave a residual activity [37] of 81%, a residual activity [38] of 94% and a residual activity [39] of 79%. For the same compound, the inhibition [40] was 1.47%, the residual activity [41] was 72% and the residual activity [42] was 100%. The residual activity [43] was 99%, the residual activity [44] was 97% and the residual activity [45] was 84%.
